Experimental data taken from patent publication US11207291B2, “Antimicrobial compositions comprising cannabinoids and methods of using the same” (Graphium Biosciences, Inc., priority 2017, dated 2021).
Converted amounts (≈) assume the structure as drawn. Where two headings read alike, the source gives them in different places.

Legend:
B. longum MMX 3968 = experiment: MIC/MBC testing (Example 5); type: cell-based
C. difficile = experiment: MIC/MBC testing (Example 5); type: cell-based; settings: for MBC:MIC: ratios of 1-4 are indicative of bactericidal activity
Lactobacillus jensenii [1] = experiment: Broth microdilution MIC, anaerobic bacteria (Example 4); type: cell-based; settings: isolate MMX 4149
B. bifidum MMX 3965 = experiment: MIC/MBC testing (Example 5); type: cell-based
Bifidobacterium bifidum [2] = experiment: Broth microdilution MIC, anaerobic bacteria (Example 1); type: cell-based; settings: Bifidobacterium bifidum; Example 1; isolate MMX 3965; read-out: MIC
Lactobacillus crispatus = experiment: as above; type: cell-based; settings: Lactobacillus crispatus; Example 1; isolate MMX 4147; read-out: MIC
Bifidobacterium longum [3] = experiment: as above; type: cell-based; settings: Bifidobacterium longum; Example 1; isolate MMX 3968; read-out: MIC
B. fragilis ATCC 25285 [4] = experiment: MIC/MBC testing (Example 5); type: cell-based; settings: Bacteroides fragilis, ATCC25285
Bacteroides fragilis [5] = experiment: Broth microdilution MIC, anaerobic bacteria (Example 1); type: cell-based; settings: Bacteroides fragilis, ATCC5285
Bifidobacterium longum [6] = experiment: Broth microdilution MIC, anaerobic bacteria (Example 4); type: cell-based; settings: isolate MMX 3968
B. fragilis ATCC 25285 [7] = settings: Example 5 control agents table; cited from earlier work
Lactobacillus jensenii [8] = experiment: Broth microdilution MIC, anaerobic bacteria (Example 1); type: cell-based; settings: Lactobacillus jensenii; Example 1; isolate MMX 4149; read-out: MIC
Bifidobacterium bifidum [9] = experiment: Broth microdilution MIC, anaerobic bacteria (Example 4); type: cell-based; settings: isolate MMX 3965
Clostridium difficile [10] = experiment: Broth microdilution MIC, anaerobic bacteria (Example 1); type: cell-based; settings: Clostridioides difficile
Clostridium difficile [11] = experiment: Broth microdilution MIC, anaerobic bacteria (Example 4); type: cell-based; settings: Clostridioides difficile
Streptococcus pneumoniae = experiment: Broth microdilution MIC, aerobic bacteria (Example 4); type: cell-based; settings: ATCC49619
Pseudomonas aeruginosa = experiment: as above; type: cell-based
E. faecalis MMX 848 = experiment: MIC/MBC testing (Example 5); type: cell-based
S. aureus MMX 757 = experiment: MIC/MBC testing (Example 5); type: cell-based
gram-negative aerobes = experiment: Broth microdilution MIC, summary (Example 4); type: cell-based; settings: tested alone
strains tested = experiment: MIC/MBC testing, summary (Example 5); type: cell-based
Aspergillus fumigatus = experiment: Broth microdilution MIC, fungi (Example 4); type: cell-based; settings: Aspergillus fumigatus, Example 4, isolate MMX 5280 (MYA-3626)
Acinetobacter baumannii = experiment: Broth microdilution MIC, aerobic bacteria (Example 4); type: cell-based
[12] = tested on: Enterococcus faecalis (VSE); experiment: as above; type: cell-based; settings: ATCC29212
Candida parapsilosis = experiment: Broth microdilution MIC, fungi (Example 4); type: cell-based; settings: for concentration at which 50% inhibition observed relative to the growth control: value in parenthesis; for MIC: Lodderomyces parapsilosis
[13] = tested on: Enterococcus faecalis (VRE); experiment: microbe, parasite or virus in culture; type: cell-based
S. pneumoniae ATCC 49619 = experiment: MIC/MBC testing (Example 5); type: cell-based; settings: Streptococcus pneumoniae, ATCC49619
[14] = tested on: evaluated yeast and fungal isolates; experiment: Broth microdilution MIC, summary (Example 4); type: cell-based
[15] = tested on: Staphylococcus aureus (MSSA); experiment: Broth microdilution MIC, aerobic bacteria (Example 4); type: cell-based; settings: ATCC 29213 / MSSA
Bacteroides fragilis [16] = experiment: Broth microdilution MIC, anaerobic bacteria (Example 4); type: cell-based; settings: ATCC25285, isolate MMX 123 (ATCC 25285)
Streptococcus pyogenes = experiment: Broth microdilution MIC, aerobic bacteria (Example 4); type: cell-based
E. faecalis ATCC 29212 = experiment: MIC/MBC testing (Example 5); type: cell-based
[17] = tested on: Staphylococcus aureus (MRSA); experiment: microbe, parasite or virus in culture; type: cell-based
[18] = Compound precipitation in uninoculated solubility controls (Example 4); type: physicochemical; set-up: key to precipitation observed (type): NA: not applicable (no precipitation observed); TRP: trace precipitate; DCP: distinct precipitate
Procedure: Un-inoculated solubility control plates for each test media and drug were incubated in parallel with test plates and observed for evidence of drug precipitation. MICs were read where visible growth of the organism was inhibited.

S. pyogenes MMX 404 = experiment: MIC/MBC testing (Example 5); type: cell-based
E. coli ATCC 25922 = experiment: MIC/MBC testing (Example 5); type: cell-based; settings: Escherichia coli, ATCC25922
Escherichia coli = experiment: Broth microdilution MIC, aerobic bacteria (Example 4); type: cell-based; settings: ATCC25922
[19] = tested on: Klebsiella pneumoniae (KPC-2); experiment: microbe, parasite or virus in culture; type: cell-based
S. aureus ATCC 29213 = experiment: MIC/MBC testing (Example 5); type: cell-based
[20] = Clostridioides difficile, ATCC700057, Example 5, ATCC 700057
[21] = ATCC700057, Example 4, isolate MMX 4381 (ATCC 700057)
[22] = Bifidobacterium longum, MMX3968
[23] = ratios of 1-4 are indicative of bactericidal activity
[24] = Clostridioides difficile, Example 5, MMX 8330
[25] = Clostridioides difficile, Example 5, MMX 8333
[26] = Bifidobacterium bifidum, MMX3965
[27] = Enterococcus faecalis, ATCC29212
[28] = Staphylococcus aureus, ATCC29213

`Cc1ncc([N+](=O)[O-])n1CCO` [Metronidazole] gave an MIC (B. longum MMX 3968; Bifidobacterium longum, MMX3968, Example 5, read-out: MIC) of 8 µg/mL (≈ 46.7 µM), an MIC (C. difficile; [20]) of 0.12 µg/mL (≈ 0.701 µM) and an MIC (C. difficile; Clostridioides difficile, Example 5, MMX 8330, read-out: MIC) of 0.5 µg/mL (≈ 2.92 µM). For the same compound, the MIC (C. difficile; Example 5, MMX 8333) was 0.5 µg/mL (≈ 2.92 µM), the MIC (Lactobacillus jensenii [1]) was greater than 32 µg/mL and the MIC (B. bifidum MMX 3965; Bifidobacterium bifidum, MMX3965, Example 5, read-out: MIC) was 1 µg/mL (≈ 5.84 µM). The MIC (Bifidobacterium bifidum [2]) was 1 µg/mL (≈ 5.84 µM), the MIC (Lactobacillus crispatus) was greater than 32 µg/mL and the MIC (Bifidobacterium longum [3]) was 8 µg/mL (≈ 46.7 µM). The MIC (B. fragilis ATCC 25285 [4]; Example 5, read-out: MIC) was 0.5 µg/mL (≈ 2.92 µM), the MIC (Bacteroides fragilis [5]) was 0.5 µg/mL (≈ 2.92 µM) and the MIC (Bifidobacterium longum [6]) was 8 µg/mL (≈ 46.7 µM). The “CLSI QC range (MIC)” value (B. fragilis ATCC 25285 [7]) was “(0.25-2)^1 μg/mL”, the MIC (Lactobacillus jensenii [8]) was greater than 32 µg/mL and the MIC (Bifidobacterium bifidum [9]) was 2 µg/mL (≈ 11.7 µM). The MIC (Clostridium difficile [10]; ATCC00057, Example 1, isolate MMX 4381 (ATCC 00057)) was 0.12 µg/mL (≈ 0.701 µM), the MIC (Clostridium difficile [10]; Example 1, isolate MMX 8330, read-out: MIC) was 0.12 µg/mL (≈ 0.701 µM) and the MIC (Clostridium difficile [11]; [21]) was 0.25 µg/mL (≈ 1.46 µM). It also gave an MIC (Clostridium difficile [11]; Example 4, isolate MMX 8330) of 0.25 µg/mL (≈ 1.46 µM) and an MIC (Clostridium difficile [11]; Example 4, isolate MMX 8333) of 2 µg/mL (≈ 11.7 µM).

`CCCCCc1cc(O)c2c(c1)OC(C)(C)[C@@H]1CCC(C)=C[C@@H]21` [THC, tetrahydrocannabinol] showed an MIC (Streptococcus pneumoniae) of 1 µg/mL (≈ 3.18 µM), an MBC (B. longum MMX 3968; [22]) greater than 256 µg/mL and an MIC (B. longum MMX 3968; [22]) of 32 µg/mL (≈ 102 µM). For the same compound, the “MBC:MIC” value (B. longum MMX 3968; [23]) was greater than 8, the MIC (Pseudomonas aeruginosa) was greater than 128 µg/mL and the “MBC:MIC” value (C. difficile; ATCC 700057) was 2. For the same compound, the MBC (C. difficile; [20]) was 128 µg/mL (≈ 407 µM), the MIC (C. difficile; [20]) was 64 µg/mL (≈ 204 µM) and the MBC (C. difficile; [24]) was 64 µg/mL (≈ 204 µM). For the same compound, the MIC (C. difficile; [24]) was 64 µg/mL (≈ 204 µM), the MBC (C. difficile; [25]) was 128 µg/mL (≈ 407 µM) and the MIC (C. difficile; [25]) was 64 µg/mL (≈ 204 µM). For the same compound, the “MBC:MIC” value (C. difficile; MMX 8330) was 1, the “MBC:MIC” value (C. difficile; MMX 8333) was 2 and the MIC (Lactobacillus jensenii [1]) was 128 µg/mL (≈ 407 µM). The MBC (E. faecalis MMX 848; Enterococcus faecalis, MMX848) was 4 µg/mL (≈ 12.7 µM), the MIC (E. faecalis MMX 848; Enterococcus faecalis, MMX848) was 2 µg/mL (≈ 6.36 µM) and the “MBC:MIC” value (E. faecalis MMX 848; [23]) was 2. For the same compound, the MBC (B. bifidum MMX 3965; [26]) was 128 µg/mL (≈ 407 µM), the MIC (B. bifidum MMX 3965; [26]) was 32 µg/mL (≈ 102 µM) and the “MBC:MIC” value (B. bifidum MMX 3965; [23]) was 4. The MBC (S. aureus MMX 757; Staphylococcus aureus, MMX757) was 32 µg/mL (≈ 102 µM), the MIC (S. aureus MMX 757; Staphylococcus aureus, MMX757) was 4 µg/mL (≈ 12.7 µM) and the “MBC:MIC” value (S. aureus MMX 757; [23]) was 8. For the same compound, the “activity against Gram-negative aerobes” value (gram-negative aerobes) was “inactive”, the “biocidal activity against the strains tested” value (strains tested) was “overall biocidal” and the MIC (B. fragilis ATCC 25285 [4]) was greater than 256 µg/mL. The MIC (Aspergillus fumigatus; 24 hr, read-out: MIC at 24 hr) was greater than 128 µg/mL, the MIC (Aspergillus fumigatus; 48 hr, read-out: MIC at 48 hr) was greater than 128 µg/mL and the MIC (Acinetobacter baumannii) was greater than 128 µg/mL. For the same compound, the MIC [12] was 2 µg/mL (≈ 6.36 µM), the “concentration at which 50% inhibition observed relative to the growth control” value (Candida parapsilosis; Example 4, 24 hr) was 4 µg/mL and the “concentration at which 50% inhibition observed relative to the growth control” value (Candida parapsilosis; Example 4, 48 hr) was 4 µg/mL. For the same compound, the MIC (Candida parapsilosis; ATCC22019, 24 h, read-out: MIC at 24 hr) was greater than 128 µg/mL, the MIC (Candida parapsilosis; ATCC22019, Example 4, 48 hr, isolate MMX 2323 (ATCC 22019), read-out: MIC at 48 hr) was greater than 128 µg/mL and the MIC [13] was 2 µg/mL (≈ 6.36 µM). The MIC (S. pneumoniae ATCC 49619) was 1 µg/mL (≈ 3.18 µM), the MIC (Bifidobacterium longum [6]) was 32 µg/mL (≈ 102 µM) and the “activity against yeast and fungal isolates” value [14] was “Neither THC nor CBD were active”. For the same compound, the MIC [15] was 2 µg/mL (≈ 6.36 µM), the MIC (Bacteroides fragilis [16]) was greater than 128 µg/mL and the MIC (Streptococcus pyogenes) was 16 µg/mL (≈ 50.9 µM). The MBC (E. faecalis ATCC 29212; [27]) was 8 µg/mL (≈ 25.4 µM), the MIC (E. faecalis ATCC 29212; [27]) was 2 µg/mL (≈ 6.36 µM) and the “MBC:MIC” value (E. faecalis ATCC 29212; [23]) was 4. The MIC [17] was 2 µg/mL (≈ 6.36 µM), the “concentration at which precipitation was observed” value ([18]; Brucella Broth) was 128 µg/mL and the “precipitation observed (type)” value ([18]; Brucella Broth) was “DCP”. For the same compound, the “precipitation observed (type)” value ([18]; MHB II) was “DCP”, the “precipitation observed (type)” value ([18]; MHB II with Blood) was “none” and the “precipitation observed (type)” value ([18]; RPMI) was “TRP”. For the same compound, the MBC (S. pyogenes MMX 404; Streptococcus pyogenes, MMX404) was 32 µg/mL (≈ 102 µM), the MIC (S. pyogenes MMX 404; Streptococcus pyogenes, MMX404) was 32 µg/mL (≈ 102 µM) and the “MBC:MIC” value (S. pyogenes MMX 404; [23]) was 1. For the same compound, the MIC (Bifidobacterium bifidum [9]) was 16 µg/mL (≈ 50.9 µM), the MIC (Clostridium difficile [11]; [21]) was 32 µg/mL (≈ 102 µM) and the MIC (Clostridium difficile [11]; Example 4, isolate MMX 8330) was 32 µg/mL (≈ 102 µM). It also gave an MIC (Clostridium difficile [11]; Example 4, isolate MMX 8333) of 32 µg/mL (≈ 102 µM), an MIC (E. coli ATCC 25922) greater than 256 µg/mL and an MIC (Escherichia coli) greater than 128 µg/mL. For the same compound, the MIC [19] was greater than 128 µg/mL, the MBC (S. aureus ATCC 29213; [28]) was 4 µg/mL (≈ 12.7 µM) and the MIC (S. aureus ATCC 29213; [28]) was 4 µg/mL (≈ 12.7 µM). For the same compound, the “MBC:MIC” value (S. aureus ATCC 29213; [23]) was 1.
